Paper PMC12051030, “Identification of inhibitors of the Salmonella FraB deglycase, a drug target” (FEBS Open Bio, 2025)

Experiments:
deubiquitinase USP30 = tested on: deubiquitinase USP30; design: method as in PMID 28145708; settings: bioassay records in PubChem; cited from earlier work
FraB = FraB (Salmonella enterica subsp. enterica serovar Typhimurium, UniProt Q8ZLD0); assay: Native MS of FraB–inhibitor complexes; assay type: binding; settings: for binding to FraB by native MS (species observed): IST 50 V, E2I/E2I2 = FraB dimer bound to one or two inhibitor copies; for type of FraB–inhibitor interaction (covalent vs noncovalent): decrease in E2I and E2I2 with increasing IST voltage
Procedure: For MS analysis, FraB was buffer exchanged into 200 mM ammonium acetate (AmAc) (Sigma‐Aldrich) or 66.7 mM ethylenediaminediacetic acid (EDDA) (Sigma‐Aldrich) using micro Bio‐spin P6 spin columns (Bio‐Rad); AmAc and EDDA concentrations were chosen to ensure the same ionic strength. The pH was adjusted to 7.5 by adding ammonium hydroxide solution (Sigma‐Aldrich). 6‐P‐F‐Asp was diluted with water, while three different inhibitors [3470:A09, 3469:F02, and 3469:N17, all purchased from either ChemDiv (San Diego, CA, USA) or Ambinter (Orléans, France)] were diluted in DMSO. The final concentration of DMSO used in the native MS experiments was 4.8% (v/v) or 1% (v/v) for the compounds obtained from ChemDiv or Ambinter, respectively.
For the characterization of FraB–inhibitor complexes, the protein was diluted into 200 mM AmAc and then mixed with inhibitors to final concentrations of 3 μM FraB and 120 μM inhibitor. After adding the inhibitors, the FraB–inhibitor complex was incubated for 20 min at 20 °C before injecting into the mass spectrometry (MS). For the characterization of FraB–inhibitor–substrate complexes, FraB was diluted into 66.7 mM EDDA, mixed with inhibitors, incubated at 20 °C for 20 min, and subsequently mixed with 6‐P‐F‐Asp. The final concentrations were as follows: 3 μM FraB (monomer concentration), 120 μM inhibitor, and 600 μM 6‐P‐F‐Asp.
Native MS experiments were performed on Thermo Q Exactive ultra high mass range (UHMR) Orbitrap. Samples were introduced into the MS instrument by nano‐electrospray ionization, which using glass capillary tips pulled in‐house using a P‐97 micropipette puller (Sutter Instruments, Novato, CA, USA). Each sample (3–5 μL) was loaded into the tips, and the electrospray voltage was set between 0.6 and 1.0 kV. The mass spectrometer was operated in positive mode using the following tuning settings: Capillary temperature: 200 °C detector optimization: low m/z; ion transfer target: high m/z; in‐source trapping (IST): 50 V, except when applying higher IST to disrupt the FraB–inhibitor interactions; HCD trap gas flow: 5; Resolution: 12 500. Mass spectra were collected after the spray stabilized (typically < 5 min) and then examined using XCalibur 4.1 (Thermo Scientific), and deconvolved using UniDec software.

deubiquitinase USP17 = tested on: deubiquitinase USP17; design: method as in PMID 28145708; settings: bioassay records in PubChem; cited from earlier work
deubiquitinase USP28 = tested on: deubiquitinase USP28; design: method as in PMID 28145708; settings: bioassay records in PubChem; cited from earlier work
dCTP pyrophosphatase 1 = tested on: dCTP pyrophosphatase 1; design: method as in PMID 28145708; settings: bioassay records in PubChem; cited from earlier work

Chain of FraB (Q8ZLD0 entry or part of it): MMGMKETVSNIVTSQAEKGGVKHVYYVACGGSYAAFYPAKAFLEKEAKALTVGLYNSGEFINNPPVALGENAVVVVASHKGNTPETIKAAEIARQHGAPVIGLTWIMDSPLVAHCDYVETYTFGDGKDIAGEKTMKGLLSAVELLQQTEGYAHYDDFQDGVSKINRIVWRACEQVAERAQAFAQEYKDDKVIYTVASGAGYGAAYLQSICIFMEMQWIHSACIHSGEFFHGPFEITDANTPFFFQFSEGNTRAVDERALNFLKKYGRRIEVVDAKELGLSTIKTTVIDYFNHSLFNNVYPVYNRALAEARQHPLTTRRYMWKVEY

Compound | inhibition of USP30 (deubiquitinase USP30) | binding to FraB by native MS (species observed) (FraB; 3 μM FraB, 120 μM inhibitor) | type of FraB–inhibitor interaction (covalent vs noncovalent) (FraB) | inhibition of USP17 (deubiquitinase USP17) | inhibition of USP28 (deubiquitinase USP28) | binding to FraB in the presence of substrate (native MS) (FraB; 3 μM FraB, 120 μM inhibitor, 600 μM 6‐P‐F‐Asp) | inhibition of dCTP pyrophosphatase 1 (dCTP pyrophosphatase 1)
CC(C)Cc1cc(-c2nn3c(-c4ccccc4Cl)nnc3s2)n[nH]1 [3470:A09, 3‐(2‐chlorophenyl)‐6‐[5‐(2‐methylpropyl)‐1H‐pyrazol‐3‐yl]‐[1,2,4]triazolo[3,4‐b][1,3,4]thiadiazole] | found to inhibit | distinct peaks corresponding to E2I and E2I2 | noncovalent | found to inhibit | found to inhibit | – | –
c1ccc(-c2nnc3sc(C4COc5ccccc5O4)nn23)nc1 (centres unmarked) [3469:F02, 6‐(2,3‐dihydro‐1,4‐benzodioxin‐3‐yl)‐3‐pyridin‐2‐yl‐[1,2,4]triazolo[3,4‐b][1,3,4]thiadiazole] | – | distinct peaks corresponding to E2I and E2I2 | noncovalent | – | – | – | –
Fc1ccc(-c2nn3c(-c4ccccn4)nnc3s2)cc1 [3469:N17, 6‐(4‐fluorophenyl)‐3‐pyridin‐2‐yl‐[1,2,4]triazolo[3,4‐b][1,3,4]thiadiazole] | – | distinct peaks corresponding to E2I and E2I2 | noncovalent | – | – | can bind either free enzyme or the enzyme‐substrate complex | reported to inhibit
